Consider two compounds from patent US7462642B2, “Anti-cancer combinations” (Cancer Research Technology Limited, priority 2003, dated 2008).

Entries after “also recorded” stand apart in the source; their conditions may differ. Where two headings read alike, the source gives them in different places.

The subject of one data set is human tumours. Particulars: Phase I clinical trials; well-tolerated doses; cited from earlier work.
Data set [1] can be described thus: DMXAA plasma pharmacokinetic studies (HPLC assay). It counts as in vivo, mice. How it is done: (§1) DMXAA was synthesized as the sodium salt (Rewcastle et al (1990) Journal of National Cancer Institute 82:528-529). DMXAA sodium salt was dissolved in sterile water and 25 mg/kg in a volume of 0.1 ml per 10 g body weight was injected intraperitoneally (i.p.) into mice.
Diclofenac (Sigma) was dissolved in dimethylsulphoxide, and was injected i.p. into mice in a volume of 25 μl per 10 g body weight. The required dose of diclofenac was injected concurrently with DMXAA.

The subject of data set [2] is tumours or human tumour xenografts. Particulars: preclinical studies; cited from earlier work.
The next data set deals with colon 38 tumours. In words: Tumour growth delay assay. It counts as in vivo, C57B1/6 mice. How it is done:
C57B1/6 mice from the Animal Resource Unit, University of Auckland, were bred and housed under conditions of constant temperature and humidity, with sterile bedding and food, according to institutional ethical guidelines. All mice were aged between 8 and 12 weeks.
as §1
Diclofenac (Sigma) was dissolved in dimethylsulphoxide, and was injected i.p. into mice in a volume of 25 μl per 10 g body weight. […]
Colon 38 tumour fragments (˜1 mm^3) were implanted subcutaneously (s.c.) in the left flank of anaesthetized (sodium pentobarbital, 81 mg/kg) mice. […] Tumour-bearing mice were treated with drugs according to the administration schedule described before, and the tumours measured using calipers, three times weekly thereafter. Tumour volumes were calculated as 0.52a^2b, where a and b are the minor and major axes of the tumour, respectively. The arithmetic means were calculated for each time point, counting cured tumours as zero volume. The growth delay was determined as the difference in the number of days required for the control versus treated tumours to increase four times in volume. […]

For data set [3] the following is noted: cited from earlier work.
Data set [4] concerns 6-methylhydroxylation of DMXAA. Particulars: diclofenac 100 μM; mouse and human microsomes; cited from earlier work.
In another data set the test system is glucoronidation of DMXAA. The conditions noted are these: diclofenac 100 μM; mouse and human microsomes; cited from earlier work.

The term AUC denotes concentration integrated over time. Higher therefore signals more exposure. A word on the half-life: it is how long it takes for the measured level to halve. Read a low half-life as fast loss.

Consider `Cc1ccc2c(=O)c3cccc(CC(=O)O)c3oc2c1C` [DMXAA, 5,6-dimethylxanthenone-4-acetic acid], for which, in the data set with human tumours, the “tumour blood flow (dynamic MRI)” value was “significant reduction in tumour blood flow”. The AUC in data set [1] (mouse, plasma, ip, 0-6 hours, DMXAA 25 mg/kg i.p. alone or with diclofenac 5 mg/kg) was 1330 µM·h. Also, the half-life in data set [1] (mouse, plasma, ip, DMXAA 25 mg/kg i.p. alone or with diclofenac 5 mg/kg) is 2.7 h. The tumour blood flow result in data set [2] is “prolonged inhibition of tumour blood flow”. In the data set on colon 38 tumours (s.c. colon 38 tumours, DMXAA 25 mg/kg alone or with diclofenac 5 mg/kg i.p., 5 mice per group), the mice cured result was “none of the mice were cured; also recorded: no cure”.
Regarding `O=C(O)Cc1ccccc1Nc1c(Cl)cccc1Cl` [diclofenac, 2-[(2,6-dichlorophenyl)amino]benzeneacetic acid], the “increase in the plasma DMXAA AUC” value in data set [3] (diclofenac 100 mg/kg i.p., female mice) is listed as 31%; in data set [3] (diclofenac 100 mg/kg i.p., male mice), 24%. Besides, in data set [3] (diclofenac 100 mg/kg i.p., male and female mice, P<0.05), the “increase in DMXAA T1/2” value is listed as “threefold increase”. In addition, in data set [3] (diclofenac 100 mg/kg, mice), the “increase in the plasma concentration and AUC of DMXAA” value is reported as 24-31%. In data set [4], the “inhibition of 6-methylhydroxylation of DMXAA” value was greater than 54%. For the same compound, in data set [1] (3 hours after administration, DMXAA 25 mg/kg with diclofenac doses below 100 mg/kg), the “effect on DMXAA plasma concentrations” value is recorded as “no significant effect”. Also, the “inhibition of glucoronidation of DMXAA” value with glucoronidation of DMXAA was greater than 70%. Also, the “effect on the growth of colon 38 tumours” value in the data set on colon 38 tumours (diclofenac alone 5 mg/kg i.p.) is on record as “no significant effect”.
